Where a chain is given by its changes, count along the chain named.
Legend:
FLT3(D835V) = molecular target: T1, FLT3(D835V) (Homo sapiens, UniProt P36888, D835V); type: binding
T1 sequence (P36888 27-993 D835V): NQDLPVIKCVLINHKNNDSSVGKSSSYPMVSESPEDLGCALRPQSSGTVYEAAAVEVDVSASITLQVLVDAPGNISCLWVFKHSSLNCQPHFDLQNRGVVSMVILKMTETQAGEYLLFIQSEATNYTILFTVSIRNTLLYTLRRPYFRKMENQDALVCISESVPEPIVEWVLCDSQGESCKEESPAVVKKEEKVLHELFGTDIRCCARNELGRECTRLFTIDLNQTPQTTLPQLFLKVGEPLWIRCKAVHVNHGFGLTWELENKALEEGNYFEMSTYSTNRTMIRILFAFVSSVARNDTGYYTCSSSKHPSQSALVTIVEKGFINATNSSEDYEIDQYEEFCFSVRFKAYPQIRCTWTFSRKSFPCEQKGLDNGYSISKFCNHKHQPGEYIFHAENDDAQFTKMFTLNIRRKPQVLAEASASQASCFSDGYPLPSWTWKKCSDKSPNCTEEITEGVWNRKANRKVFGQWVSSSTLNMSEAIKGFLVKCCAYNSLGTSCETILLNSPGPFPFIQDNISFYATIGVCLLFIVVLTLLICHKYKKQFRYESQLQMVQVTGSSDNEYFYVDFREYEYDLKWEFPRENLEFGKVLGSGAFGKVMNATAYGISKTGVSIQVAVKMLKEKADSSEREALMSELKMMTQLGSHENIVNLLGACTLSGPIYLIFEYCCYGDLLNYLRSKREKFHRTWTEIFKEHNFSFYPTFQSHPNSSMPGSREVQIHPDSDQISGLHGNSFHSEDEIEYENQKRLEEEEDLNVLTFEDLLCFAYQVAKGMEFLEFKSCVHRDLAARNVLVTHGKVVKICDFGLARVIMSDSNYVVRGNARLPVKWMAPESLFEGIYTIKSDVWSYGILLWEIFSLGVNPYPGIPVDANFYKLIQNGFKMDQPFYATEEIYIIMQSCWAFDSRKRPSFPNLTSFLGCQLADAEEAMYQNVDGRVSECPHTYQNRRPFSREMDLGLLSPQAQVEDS
Experimental: (§1) The assay was carried out using KINOMEscan™ technology. The assay compounds were stored in 100% DMSO. The assay was carried out by means of 3-fold dilution and 11-point fitting. All compounds used for Kd determination were dispersed by ultrasound, then directly diluted and tested. All reactions were carried out in a 384-well polypropylene plate. Each portion has a final volume of 0.02 ml. The plate was incubated with shaking at room temperature for 1 hour, and then processed. The kinase concentration in the eluent was finally determined by qPCR method. Kd was obtained by fitting.

FLT3(N841I) = molecular target: T2, FLT3(N841I) (Homo sapiens, UniProt P36888, N841I); type: binding
T2 sequence (P36888 27-993 N841I): T1 sequence (P36888 27-993 D835V) with V809D, N815I
Experimental: as §1

## CCc1nc(C(N)=O)c(Nc2ccc(N3CCC4(CCN(C)CC4)CC3)c(C)c2)nc1NC1CCOCC1.O=C(O)C(F)(F)F
FLT3(D835V)
  Kd: 0.23 nM
FLT3(N841I)
  Kd: 5.4 nM
